Holding throughout (type): biochemical
The target in experiment [1] is T1, CDK2:Cyclin A (Homo sapiens, UniProt P24941).
T1 construct: purchased Upstate Biotech, Lake Placid, N.Y
Kind of experiment: CDK2 Screening Assay. The following applies: 10 μM ATP, biotinylated histone-H1 peptide substrate, 33P-γ-ATP FlashPlate; read-out: Kinase IC50 CDK2. How it is done: (§1) A kinase reaction mixture was prepared containing 50 mM Tris.HCl pH=8, 10 mM MgCl2, 0.1 mM Na3PO4, 1 mM DTT, 10 μM ATP, 0.025 μM biotinylated histone-H1 peptide substrate and 0.2 μCuries per well ^33P-γ-ATP (2000-3000 Ci/mmol). 70 μL of the kinase reaction mixture was dispensed into the well of a streptavidin coated FlashPlate™ (Cat. # SMP103, NEN, Boston, Mass.). Then 1 μL of test compound stock in 100% DMSO was added to the wells resulting in a final concentration of 1% DMSO in the reaction well with a 100 μL final reaction well volume.
(§2) The CDK2:Cyclin A protein was diluted in 50 mM Tris.HCl pH=8.0, 0.1% BSA at a concentration of 1 ng per μL and 30 μL (30 ng enzyme per test well) was added to each well to initiate the reaction. The reaction was incubated for one hour at 30° C. At the end of the one hour incubation, the reaction was terminated by aspirating the mixture from the plate and washing the wells twice with PBS containing 100 mM EDTA. The histone-H1 biotinylated peptide substrate became immobilized on the Flashplate™ and the incorporation of ^33P-γ-ATP was measured by reading the plate on a scintillation counter. Inhibition of the enzymatic activity of CDK2 was measured by observing a reduced amount of ^33P-γ-ATP incorporated into the immobilized peptide.
The CDK2 kinase used was complexed with cyclin A and is commercially available (Upstate Biotech, Lake Placid, N.Y.).
(§3) An IC50 listed as >0.1, >1, >10 or >100 means no observed 50% inhibition at the indicated test concentration. […] ND means the compound was not tested in the assay specified.

Experiment [2] has as its target T2, CDK1:Cyclin-B (Homo sapiens, UniProt P06493).
T2 construct: purchased New England Biolabs, Beverly, Mass; 6020; host or cells: insect cells
Kind of experiment: CDK1 Screening Assay. The conditions noted are these: 10 μM ATP, biotinylated histone-H1 peptide substrate, 33P-γ-ATP FlashPlate; read-out: Kinase IC50 CDK1. How it is done: as §1
as §2, with “CDK1:Cyclin-B” for “CDK2:Cyclin A”, “CDK1” for “CDK2”
The CDK1 kinase used was isolated from insect cells expressing both the human CDK1 catalytic subunit and its positive regulatory subunit cyclin B (New England Biolabs, Beverly, Mass., Cat. # 6020).
as §3

The target in experiment [3] is VEGF-R2 kinase domain (Rattus norvegicus, UniProt O08775). Kind of experiment: VEGF-R2 Screening Assay. The conditions noted are these: 10 μM ATP, biotinylated PLC1 peptide substrate, 33P-γ-ATP FlashPlate; read-out: Kinase IC50 VEGFR. How it is done:
A kinase reaction mixture was prepared containing 50 mM Tris.HCl pH=8, 10 mM MgCl2, 0.1 mM Na3PO4, 1 mM DTT, 10 μM ATP, 0.025 μM biotinylated peptide substrate and 0.8 μCuries per well ^33P-γ-ATP (2000-3000 Ci/mmol). 70 μL of the kinase reaction mixture was dispensed into the well of a streptavidin coated FlashPlate™ (Cat. # SMP103, NEN, Boston, Mass.). Then 1 μL of test compound stock in 100% DMSO was added to the wells resulting in a final concentration of 1% DMSO in the reaction well with a 100 μL final reaction well volume.
The soluble rat tyrosine kinase containing an N-terminal 6×HIS tag was diluted in 50 mM Tris.HCl pH=8.0, 0.1% BSA at a concentration of 5 ng per μL and 30 μL (150 ng enzyme per test well) was added to each well to initiate the reaction. The reaction was incubated for one hour at 30° C. At the end of the one hour incubation, the reaction was terminated by aspirating the reaction mixture from the plate and washing the wells twice with PBS containing 100 mM EDTA. The PLC1 biotinylated peptide substrate became immobilized on the Flashplate™ and the incorporation of ^33P-γ-ATP was measured by reading the plate on a scintillation counter. Inhibition of the enzymatic activity of the VEGF-R was measured by observing a reduced amount of ^33P-γ-ATP incorporated into the immobilized peptide.
The VEGF-R kinase assay was carried out using the CDK kinase assay procedure except that the enzyme was replaced with the VEGF-R2 fusion protein containing a polyhistidine tag at the N-terminus followed by amino acids 786-1343 of the rat VEGF-R2 kinase domain (GenBank Accession #U93306).
as §3

The results in this text go back to patent US20080293785A1, “SUBSTITUTED BENZOTHIAZOLE KINASE INHIBITORS” (priority 2006, published 2008).

Molecules are shown by their SMILES. Some results are limits rather than exact numbers.

By IC50 is commonly meant the concentration that gives 50% inhibition.

Chain of VEGF-R2 kinase domain (O08775 786-1343): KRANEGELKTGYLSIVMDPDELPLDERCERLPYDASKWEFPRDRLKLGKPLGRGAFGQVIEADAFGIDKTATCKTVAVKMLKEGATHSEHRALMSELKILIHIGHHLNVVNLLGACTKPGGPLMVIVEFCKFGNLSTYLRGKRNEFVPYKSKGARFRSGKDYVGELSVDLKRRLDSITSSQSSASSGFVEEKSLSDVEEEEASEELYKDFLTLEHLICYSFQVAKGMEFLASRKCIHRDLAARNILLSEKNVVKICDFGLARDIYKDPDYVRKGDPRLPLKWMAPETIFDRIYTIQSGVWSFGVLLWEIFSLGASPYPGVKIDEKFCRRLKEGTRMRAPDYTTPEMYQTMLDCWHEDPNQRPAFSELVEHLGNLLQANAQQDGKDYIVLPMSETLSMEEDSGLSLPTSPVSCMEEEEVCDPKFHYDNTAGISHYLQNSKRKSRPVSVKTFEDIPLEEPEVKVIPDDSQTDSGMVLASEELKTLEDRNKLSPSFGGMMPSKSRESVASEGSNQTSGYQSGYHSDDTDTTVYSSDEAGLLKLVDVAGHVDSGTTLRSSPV
T2 sequence (P06493 whole entry): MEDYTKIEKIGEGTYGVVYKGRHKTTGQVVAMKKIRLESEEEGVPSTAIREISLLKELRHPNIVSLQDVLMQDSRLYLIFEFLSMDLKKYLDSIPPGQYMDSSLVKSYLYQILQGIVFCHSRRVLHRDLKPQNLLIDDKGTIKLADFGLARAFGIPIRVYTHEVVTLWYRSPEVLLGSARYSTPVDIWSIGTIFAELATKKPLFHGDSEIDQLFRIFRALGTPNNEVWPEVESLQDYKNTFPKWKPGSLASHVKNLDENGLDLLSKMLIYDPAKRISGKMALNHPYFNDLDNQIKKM
T2 sequence (P14635 whole entry partner): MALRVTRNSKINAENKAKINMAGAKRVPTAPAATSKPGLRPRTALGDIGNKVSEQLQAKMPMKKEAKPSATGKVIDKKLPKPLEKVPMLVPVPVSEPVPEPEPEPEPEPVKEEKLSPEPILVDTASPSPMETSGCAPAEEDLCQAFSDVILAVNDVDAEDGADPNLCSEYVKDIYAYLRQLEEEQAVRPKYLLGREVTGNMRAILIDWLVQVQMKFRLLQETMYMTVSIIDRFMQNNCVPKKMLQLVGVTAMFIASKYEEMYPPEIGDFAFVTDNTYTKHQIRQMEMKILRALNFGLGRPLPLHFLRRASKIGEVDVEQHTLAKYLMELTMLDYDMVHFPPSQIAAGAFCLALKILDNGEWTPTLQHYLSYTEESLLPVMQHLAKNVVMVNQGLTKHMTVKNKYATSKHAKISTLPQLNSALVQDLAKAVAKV

On to `O=C(Nc1ccccc1F)Nc1cccc2sc(Nc3ccccc3)nc12` [Cpd 7, 1-(2-fluoro-phenyl)-3-(2-phenylamino-benzothiazol-4-yl)-urea], for which the IC50 is 17.4 µM in experiment [1], more than 100 µM in experiment [2] and more than 100 µM in experiment [3].

Consider `O=C(Nc1c(Cl)cccc1Cl)Nc1cccc2sc(Nc3ccccc3)nc12` [Cpd 8, 1-(2,6-dichloro-phenyl)-3-(2-phenylamino-benzothiazol-4-yl)-urea], for which the IC50 is 3.74 µM in experiment [1], 17.5 µM in experiment [2] and more than 100 µM in experiment [3].

As for `O=C(Nc1cccc2sc(Nc3ccccc3)nc12)c1ccccc1` [Cpd 9, N-(2-phenylamino-benzothiazol-4-yl)-benzamide], the values for the IC50 in experiment [1], in experiment [2] and in experiment [3] were 17.5 µM, more than 100 µM and more than 100 µM, respectively.

As to `O=C(Nc1cccc2sc(Nc3ccccc3)nc12)c1c(F)cccc1F` [Cpd 10, 2,6-difluoro-N-(2-phenylamino-benzothiazol-4-yl)-benzamide], the IC50 in experiment [1] came out at 0.65 µM; in experiment [2], 3.64 µM; in experiment [3], 5.96 µM.

Turning to `COc1ccc(Nc2nc3c(NC(=O)c4c(F)ccc(C)c4F)cccc3s2)cc1` [Cpd 11, 2,6-difluoro-N-[2-(4-methoxy-phenylamino)-benzothiazol-4-yl]-3-methyl-benzamide], the values for the IC50 in experiment [1], in experiment [2] and in experiment [3] were more than 10 µM, more than 100 µM and more than 100 µM, respectively.

For the compound `Cc1ccc(F)c(C(=O)Nc2cccc3sc(Nc4ccc(S(N)(=O)=O)cc4)nc23)c1F` [Cpd 12, 2,6-difluoro-3-methyl-N-[2-(4-sulfamoyl-phenylamino)-benzothiazol-4-yl]-benzamide], the IC50 in experiment [1], in experiment [2] and in experiment [3] was more than 100 µM in each case.

Take `Cc1cc(C(=O)Nc2cccc3sc(Nc4ccccc4)nc23)n(C)n1` [Cpd 13, 2,5-dimethyl-2H-pyrazole-3-carboxylic acid (2-phenylamino-benzothiazol-4-yl)-amide]: the IC50 in experiment [1] is 3.34 µM; in experiment [2], more than 10 µM; in experiment [3] it was more than 100 µM.

For the compound `Cc1ccc(Nc2nc3c(NC(=O)c4c(F)ccc(C)c4F)cccc3s2)cc1` [Cpd 14, 2,6-difluoro-3-methyl-N-(2-p-tolylamino-benzothiazol-4-yl)-benzamide], the IC50 was 3.09 µM in experiment [1], more than 100 µM in experiment [2] and more than 100 µM in experiment [3].

Consider `O=C(Nc1cccc2sc(Nc3ccccc3)nc12)c1ccncn1` [Cpd 15, pyrimidine-4-carboxylic acid (2-phenylamino-benzothiazol-4-yl)-amide], for which the figures for the half-maximal inhibitory concentration (IC50) in experiment [1], in experiment [2] and in experiment [3] were 89.1 µM, more than 100 µM and more than 100 µM, respectively.

Turning to `CC(=O)Nc1cccc2sc(Nc3ccccc3)nc12` [Cpd 16, N-(2-phenylamino-benzothiazol-4-yl)-acetamide], the IC50 was more than 10 µM in experiment [1], more than 100 µM in experiment [2] and more than 100 µM in experiment [3].

For the compound `NS(=O)(=O)c1ccc(C(=O)Nc2cccc3sc(Nc4ccccc4)nc23)cc1` [Cpd 17, N-(2-phenylamino-benzothiazol-4-yl)-4-sulfamoyl-benzamide], the IC50 is 3.05 µM in experiment [1], more than 100 µM in experiment [2] and more than 100 µM in experiment [3].

Turning to `O=C(Nc1cccc2sc(Nc3ccccc3)nc12)c1ccno1` [Cpd 18, isoxazole-5-carboxylic acid (2-phenylamino-benzothiazol-4-yl)-amide], the IC50 in experiment [1] is 7.51 µM; in experiment [2], more than 100 µM; in experiment [3], more than 100 µM.

As to `O=C(Nc1cccc2sc(Nc3ccccc3)nc12)c1cccc([N+](=O)[O-])c1` [Cpd 19, 3-nitro-N-(2-phenylamino-benzothiazol-4-yl)-benzamide], the results for the IC50 in experiment [1], in experiment [2] and in experiment [3] were 10.8 µM, more than 100 µM and more than 100 µM, respectively.

As for `Nc1cccc(C(=O)Nc2cccc3sc(Nc4ccccc4)nc23)c1` [Cpd 20, 3-amino-N-(2-phenylamino-benzothiazol-4-yl)-benzamide], the results for the IC50 in experiment [1], in experiment [2] and in experiment [3] were 5.28 µM, more than 100 µM and more than 100 µM, respectively.

With `O=C(Nc1cccc2sc(Nc3ccccc3)nc12)c1ccc(N2CCOCC2)nc1` [Cpd 21, 6-morpholin-4-yl-N-(2-phenylamino-benzothiazol-4-yl)-nicotinamide], the results for the IC50 in experiment [1], in experiment [2] and in experiment [3] were 1.54 µM, 14.8 µM and more than 100 µM, respectively.

Regarding `O=C(Cn1cnnn1)Nc1cccc2sc(Nc3ccccc3)nc12` [Cpd 22, N-(2-phenylamino-benzothiazol-4-yl)-2-tetrazol-1-yl-acetamide], the IC50 in experiment [1] is 0.22 µM; in experiment [2], 1.31 µM; in experiment [3] it was more than 100 µM.

Turning to `O=C(Cc1cc(F)cc(F)c1)Nc1cccc2sc(Nc3ccccc3)nc12` [Cpd 23, 2-(3,5-difluoro-phenyl)-N-(2-phenylamino-benzothiazol-4-yl)-acetamide], the IC50 in experiment [1] is 2.12 µM; in experiment [2], more than 10 µM; in experiment [3] it was more than 100 µM.

Consider `O=C(Nc1cccc2sc(Nc3ccccc3)nc12)c1cncc(Br)c1` [Cpd 24, 5-bromo-N-(2-phenylamino-benzothiazol-4-yl)-nicotinamide], for which the concentration for half-maximal inhibition (IC50) in experiment [1] was 8.28 µM; in experiment [2], 53.3 µM; in experiment [3], more than 100 µM.

For the compound `CC(=O)N1CCC(C(=O)Nc2cccc3sc(Nc4ccccc4)nc23)CC1` [Cpd 25, 1-acetyl-piperidine-4-carboxylic acid (2-phenylamino-benzothiazol-4-yl)-amide], the concentration for half-maximal inhibition (IC50) was 6.22 µM in experiment [1], 36.4 µM in experiment [2] and more than 100 µM in experiment [3].

In the case of `CCC(=O)Nc1cccc2sc(Nc3ccccc3)nc12` [Cpd 26, N-(2-phenylamino-benzothiazol-4-yl)-propionamide], the values for the IC50 in experiment [1], in experiment [2] and in experiment [3] were 3.67 µM, more than 100 µM and more than 100 µM, respectively.

In the case of `O=C(Nc1cccc2sc(Nc3ccccc3)nc12)c1ccccn1` [Cpd 27, pyridine-2-carboxylic acid (2-phenylamino-benzothiazol-4-yl)-amide], the half-inhibitory concentration (IC50) in experiment [1] was 12 µM; in experiment [2] it was more than 100 µM; in experiment [3], more than 100 µM.

Turning to `O=C(Nc1cccc2sc(Nc3ccccc3)nc12)c1ccncc1` [Cpd 28, N-(2-phenylamino-benzothiazol-4-yl)-isonicotinamide], the half-maximal inhibitory concentration (IC50) is 1.65 µM in experiment [1], 12.3 µM in experiment [2] and more than 100 µM in experiment [3].

As to `O=C(Nc1cccc2sc(Nc3ccccc3)nc12)c1ccc2c(c1)OCO2` [Cpd 29, benzo[1,3]dioxole-5-carboxylic acid (2-phenylamino-benzothiazol-4-yl)-amide], the results for the IC50 in experiment [1], in experiment [2] and in experiment [3] were 11.6 µM, more than 100 µM and more than 100 µM, respectively.
